# Data from the supplement of paper PMC10307832.
# Key:
# Test in all cases: relative viability (nuclei count vs DMSO), 5 days (fraction); higher = more cells survive
# NCI-H650 = test system: NCI-H650
# Summary of the method: (§1)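 After 5 days of treatment, lung cancer cells in 1536-well plates were fixed and stained in a single step (final 0.05% Triton X-100, 1% formaldehyde, 1 ug/ml Hoechst) and their nuclei counted on 4× images. Treatment had been applied by pin tool the day after seeding as one drug alone or as a fixed anchor-drug dose with five library-drug doses (not always all listed) in √10 steps. Relative viability is the nuclei count of treated wells divided by that of vehicle wells, and values are medians of duplicate plates.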
# LCLC-97TM1 = test system: LCLC-97TM1
# Summary of the method: as §1
# NCI-H596 = test system: NCI-H596
# Summary of the method: as §1
# NCI-H1944 = test system: NCI-H1944
# Summary of the method: as §1
# LC-2-ad = test system: LC-2-ad
# Summary of the method: as §1
# NCI-H460 = test system: NCI-H460
# Summary of the method: as §1
# NCI-H1651 = test system: NCI-H1651
# Summary of the method: as §1
# PC-3 [JPC-3] = test system: PC-3 [JPC-3]
# Summary of the method: as §1
# BEN = test system: BEN
# Summary of the method: as §1
# CAL-12T = test system: CAL-12T
# Summary of the method: as §1
# NCI-H727 = test system: NCI-H727
# Summary of the method: as §1
smiles,measurement,setting,value
Cc1sc2c(c1C)C(c1ccc(Cl)cc1)=N[C@@H](CC(=O)OC(C)(C)C)c1nnc(C)n1-2 [JQ1] + Cc1nc(NC(=O)N2CCC[C@H]2C(N)=O)sc1-c1ccnc(C(C)(C)C(F)(F)F)c1 [Alpelisib] (partner 2 µM),relative viability,NCI-H650; first compound 0.04 µM,1.11
same,relative viability,NCI-H650; first compound 0.1265 µM,0.715
same,relative viability,NCI-H650; first compound 0.4 µM,0.707
same,relative viability,NCI-H650; first compound 1.265 µM,0.377
same,relative viability,NCI-H650; first compound 4 µM,0.257
same,relative viability,LCLC-97TM1; first compound 0.1265 µM,0.233
same,relative viability,LCLC-97TM1; first compound 0.4 µM,0.232
same,relative viability,LCLC-97TM1; first compound 1.265 µM,0.133
same,relative viability,LCLC-97TM1; first compound 4 µM,0.128
same,relative viability,NCI-H596; first compound 0.04 µM,0.481
same,relative viability,NCI-H596; first compound 0.1265 µM,0.499
same,relative viability,NCI-H596; first compound 0.4 µM,0.437
same,relative viability,NCI-H596; first compound 1.265 µM,0.41
same,relative viability,NCI-H596; first compound 4 µM,0.343
same,relative viability,NCI-H1944; first compound 0.04 µM,0.709
same,relative viability,NCI-H1944; first compound 0.1265 µM,0.722
same,relative viability,NCI-H1944; first compound 0.4 µM,0.715
same,relative viability,NCI-H1944; first compound 1.265 µM,0.544
same,relative viability,NCI-H1944; first compound 4 µM,0.397
same,relative viability,LC-2-ad; first compound 0.04 µM,0.953
same,relative viability,LC-2-ad; first compound 0.1265 µM,0.794
same,relative viability,LC-2-ad; first compound 0.4 µM,0.54
same,relative viability,LC-2-ad; first compound 1.265 µM,0.289
same,relative viability,LC-2-ad; first compound 4 µM,0.217
same,relative viability,NCI-H460; first compound 0.04 µM,0.47
same,relative viability,NCI-H460; first compound 0.1265 µM,0.344
same,relative viability,NCI-H460; first compound 0.4 µM,0.257
same,relative viability,NCI-H460; first compound 1.265 µM,0.0483
same,relative viability,NCI-H460; first compound 4 µM,0.0414
same,relative viability,NCI-H1651; first compound 0.04 µM,0.882
same,relative viability,NCI-H1651; first compound 0.1265 µM,0.886
same,relative viability,NCI-H1651; first compound 0.4 µM,0.589
same,relative viability,NCI-H1651; first compound 1.265 µM,0.462
same,relative viability,NCI-H1651; first compound 4 µM,0.411
same,relative viability,PC-3 [JPC-3]; first compound 0.04 µM,1.06
same,relative viability,PC-3 [JPC-3]; first compound 0.1265 µM,1.03
same,relative viability,PC-3 [JPC-3]; first compound 0.4 µM,1.09
same,relative viability,PC-3 [JPC-3]; first compound 1.265 µM,0.775
same,relative viability,PC-3 [JPC-3]; first compound 4 µM,0.608
same,relative viability,BEN; first compound 0.04 µM,0.953
same,relative viability,BEN; first compound 0.1265 µM,0.918
same,relative viability,BEN; first compound 0.4 µM,0.594
same,relative viability,BEN; first compound 1.265 µM,0.332
same,relative viability,BEN; first compound 4 µM,0.273
same,relative viability,CAL-12T; first compound 0.04 µM,1.08
same,relative viability,CAL-12T; first compound 0.1265 µM,1.42
same,relative viability,CAL-12T; first compound 0.4 µM,0.919
same,relative viability,CAL-12T; first compound 1.265 µM,0.325
same,relative viability,CAL-12T; first compound 4 µM,0.328
same,relative viability,NCI-H727; first compound 0.04 µM,0.525
same,relative viability,NCI-H727; first compound 0.1265 µM,0.668
